The record followed here is patent publication US20240254118A1, “PRMT5 INHIBITORS AND USES THEREOF” (Gilead Sciences, Inc., priority 2022, published 2024).

The term CC50 denotes the concentration giving 50% cytotoxicity. Low readings indicate harm at low concentration, high ones better tolerance by the cells.

This assay has as its system HCT116 MTAP-deleted cells. Nature of the assay: Cell viability assay (CellTiter-Glo, 7 days), HCT116 MTAP-deleted. To be noted: Homo sapiens, HCT-116, 168 h. (In general: In ATP-based viability assays light output follows the ATP content of the culture.)

Turning to `CN(C(=O)C1CC1)N(Cc1cc2cc(Cl)ccn2n1)C(=O)c1ccc2nc(N)c3cnn(C)c3c2c1` [Example 401], the CC50 is < 100 nM.

With `CN(C(=O)C1CC1)N(Cc1cc2cc(C(F)(F)F)ccn2n1)C(=O)c1ccc2nc(N)c3cnn(C)c3c2c1` [Example 404, 4-amino-N′-(cyclopropanecarbonyl)-N′,1-dimethyl-N-((5-(trifluoromethyl)pyrazolo[1,5-a]pyridin-2-yl)methyl)-1H-pyrazolo[4,3-c]quinoline-8-carbohydrazide], the CC50 is < 100 nM.

As to `CC(=O)N(C)N(Cc1ccc(C#N)cc1C(F)(F)F)C(=O)c1ccc2nc(N)c3cnn(C)c3c2c1` [Example 407, N′-acetyl-4-amino-N-(4-cyano-2-(trifluoromethyl)benzyl)-N′,1-dimethyl-1H-pyrazolo[4,3-c]quinoline-8-carbohydrazide], the CC50 was 100 to 1000 nM.

As for `CC(=O)N(C)N(Cc1ccc(C#N)cc1OC(F)F)C(=O)c1ccc2nc(N)c3cnn(C)c3c2c1` [Example 408, N′-acetyl-4-amino-N-(4-cyano-2-(difluoromethoxy)benzyl)-N′,1-dimethyl-1H-pyrazolo[4,3-c]quinoline-8-carbohydrazide], the CC50 is < 100 nM.

Consider `Cc1nc(C(F)(F)F)ccc1CN(C(=O)c1ccc2nc(N)c3cnn(C)c3c2c1)N(C)C(=O)C1CC1` [Example 409, 4-amino-N′-(cyclopropanecarbonyl)-N′,1-dimethyl-N-((2-methyl-6-(trifluoromethyl)pyridin-3-yl)methyl)-1H-pyrazolo[4,3-c]quinoline-8-carbohydrazide], for which the CC50 was < 100 nM.

For `CC(=O)N(C)N(Cc1ccc(C(F)(F)F)cc1C)C(=O)c1ccc2nc(N)c3cnn(C)c3c2c1` [Example 410, N′-acetyl-4-amino-N′,1-dimethyl-N-(2-methyl-4-(trifluoromethyl)benzyl)-1H-pyrazolo[4,3-c]quinoline-8-carbohydrazide], the CC50 was < 100 nM.

Regarding `CC(=O)N(C)N(Cc1c(F)cc2c(ccn2C)c1F)C(=O)c1ccc2nc(N)c3cnn(C)c3c2c1` [Example 411, N′-acetyl-4-amino-N-((4,6-difluoro-1-methyl-1H-indol-5-yl)methyl)-N′,1-dimethyl-1H-pyrazolo[4,3-c]quinoline-8-carbohydrazide], the CC50 was < 100 nM.

As to `CC(=O)N(C)N(Cc1ccc2c(c1)c1ccccc1n2C)C(=O)c1ccc2nc(N)c3cnn(C)c3c2c1` [Example 412, N′-acetyl-4-amino-N′,1-dimethyl-N-((9-methyl-9H-carbazol-3-yl)methyl)-1H-pyrazolo[4,3-c]quinoline-8-carbohydrazide], the cytotoxic concentration (CC50) was in the range of 100 to 1000 nM.

In turn, `CC(=O)N(C)N(Cc1cc(F)c(F)c(F)c1)C(=O)c1ccc2nc(N)c3cnn(C)c3c2c1` [Example 414, N′-acetyl-4-amino-N′,1-dimethyl-N-(3,4,5-trifluorobenzyl)-1H-pyrazolo[4,3-c]quinoline-8-carbohydrazide] displayed a 50% cytotoxic concentration (CC50) of 100 to 1000 nM.

Consider `CC(=O)N(C)N(Cc1ccn(-c2ccc(C(F)(F)F)cc2)n1)C(=O)c1ccc2nc(N)c3cnn(C)c3c2c1` [Example 417, N′-acetyl-4-amino-N′,1-dimethyl-N-((1-(4-(trifluoromethyl)phenyl)-1H-pyrazol-3-yl)methyl)-1H-pyrazolo[4,3-c]quinoline-8-carbohydrazide], for which the CC50 is < 100 nM.

In the case of `CN(C(=O)C1CC1)N(Cc1ccc(C(F)(F)F)cn1)C(=O)c1cc2c(cn1)nc(N)c1cnn(C)c12` [Example 422, 4-amino-N′-(cyclopropanecarbonyl)-N′,1-dimethyl-N-((5-(trifluoromethyl)pyridin-2-yl)methyl)-1H-pyrazolo[4,3-c][1,7]naphthyridine-8-carbohydrazide], the CC50 lay within 100 to 1000 nM.

For `CC(=O)N(C)N(Cc1nc2cc(F)c(F)cc2n1C)C(=O)c1ccc2nc(N)c3cnn(C)c3c2c1` [Example 424, N′-acetyl-4-amino-N-((5,6-difluoro-1-methyl-1H-benzo[d]imidazol-2-yl)methyl)-N′,1-dimethyl-1H-pyrazolo[4,3-c]quinoline-8-carbohydrazide], the CC50 was < 100 nM.

Consider `CC(=O)N(C)N(Cc1ccn(-c2ccc(F)cc2)n1)C(=O)c1cc2c(cc1F)nc(N)c1cnn(C)c12` [Example 425, N′-acetyl-4-amino-7-fluoro-N-((1-(4-fluorophenyl)-1H-pyrazol-3-yl)methyl)-N′,1-dimethyl-1H-pyrazolo[4,3-c]quinoline-8-carbohydrazide], for which the CC50 is < 100 nM.

Consider `CC(=O)N(C)N(Cc1nc2ccc(Cl)cc2n1C)C(=O)c1ccc2nc(N)c3cnn(C)c3c2c1` [Example 426, N′-acetyl-4-amino-N-((6-chloro-1-methyl-1H-benzo[d]imidazol-2-yl)methyl)-N′,1-dimethyl-1H-pyrazolo[4,3-c]quinoline-8-carbohydrazide], for which the CC50 was < 100 nM.

Take `Cn1ncc2c(N)nc3cc(F)c(C(=O)N(Cc4ccc(C(F)(F)F)cn4)N4CCOC(C(F)(F)F)C4)cc3c21` (centres unmarked) [Example 427, 4-amino-7-fluoro-1-methyl-N-(2-(trifluoromethyl)morpholino)-N-((5-(trifluoromethyl)pyridin-2-yl)methyl)-1H-pyrazolo[4,3-c]quinoline-8-carboxamide]: the CC50 is < 100 nM.

On to `Cn1ncc2c(N)nc3ccc(C(=O)N(Cc4ccc(C(F)(F)F)cn4)N4CCOC(C(F)(F)F)C4)cc3c21` (centres unmarked) [Example 428, 4-amino-1-methyl-N-(2-(trifluoromethyl)morpholino)-N-((5-(trifluoromethyl)pyridin-2-yl)methyl)-1H-pyrazolo[4,3-c]quinoline-8-carboxamide], for which the CC50 was 100 to 1000 nM.

For the compound `CC(=O)N(C)N(Cc1nc(-c2ccccc2)cs1)C(=O)c1ccc2nc(N)c3cnn(C)c3c2c1` [Example 429, N′-acetyl-4-amino-N′,1-dimethyl-N-((4-phenylthiazol-2-yl)methyl)-1H-pyrazolo[4,3-c]quinoline-8-carbohydrazide], the CC50 is < 100 nM.

For `CC(=O)N(C)N(Cc1cnn(-c2ccc(C(F)(F)F)cc2)c1)C(=O)c1ccc2nc(N)c3cnn(C)c3c2c1` [Example 430, N′-acetyl-4-amino-N′,1-dimethyl-N-((1-(4-(trifluoromethyl)phenyl)-1H-pyrazol-4-yl)methyl)-1H-pyrazolo[4,3-c]quinoline-8-carbohydrazide], the 50% cytotoxic concentration (CC50) is 100 to 1000 nM.

As to `CC(=O)N(C)N(Cc1nc2ccccc2n1C(F)F)C(=O)c1ccc2nc(N)c3cnn(C)c3c2c1` [Example 431, N′-acetyl-4-amino-N-((1-(difluoromethyl)-1H-benzo[d]imidazol-2-yl)methyl)-N′,1-dimethyl-1H-pyrazolo[4,3-c]quinoline-8-carbohydrazide], the CC50 lay in the range of 100 to 1000 nM.

For `CC(=O)N(C)N(Cc1cnc(-c2ccccc2)n1C)C(=O)c1ccc2nc(N)c3cnn(C)c3c2c1` [Example 433, N′-acetyl-4-amino-N′,1-dimethyl-N-((1-methyl-2-phenyl-1H-imidazol-5-yl)methyl)-1H-pyrazolo[4,3-c]quinoline-8-carbohydrazide], the CC50 is < 100 nM.

As to `Cn1ncc2c(N)nc3ccc(C(=O)N(Cc4ccn(-c5ccccc5F)n4)NC(=O)C4CC4)cc3c21` [Example 434, 4-amino-N′-(cyclopropanecarbonyl)-N-((1-(2-fluorophenyl)-1H-pyrazol-3-yl)methyl)-1-methyl-1H-pyrazolo[4,3-c]quinoline-8-carbohydrazide], the half-maximal cytotoxic concentration (CC50) was < 100 nM.

`CC(=O)N(C)N(Cc1ccn(-c2cccc(F)c2)n1)C(=O)c1ccc2nc(N)c3cnn(C)c3c2c1` [Example 435, N′-acetyl-4-amino-N-((1-(3-fluorophenyl)-1H-pyrazol-3-yl)methyl)-N′,1-dimethyl-1H-pyrazolo[4,3-c]quinoline-8-carbohydrazide]: the CC50 is < 100 nM.

On to `CC(=O)N(C)N(Cc1ccn(-c2ccccc2F)n1)C(=O)c1ccc2nc(N)c3cnn(C)c3c2c1` [Example 436, N′-acetyl-4-amino-N-((1-(2-fluorophenyl)-1H-pyrazol-3-yl)methyl)-N′,1-dimethyl-1H-pyrazolo[4,3-c]quinoline-8-carbohydrazide], for which the half-maximal cytotoxic concentration (CC50) is < 100 nM.

For `CC(=O)N(C)N(Cc1ccn(-c2ccc(F)cc2F)n1)C(=O)c1ccc2nc(N)c3cnn(C)c3c2c1` [Example 440, N′-acetyl-4-amino-N-((1-(2,4-difluorophenyl)-1H-pyrazol-3-yl)methyl)-N′,1-dimethyl-1H-pyrazolo[4,3-c]quinoline-8-carbohydrazide], the CC50 is < 100 nM.

Regarding `CC(=O)N(C)N(Cc1ccn(-c2c(F)cccc2F)n1)C(=O)c1ccc2nc(N)c3cnn(C)c3c2c1` [Example 441, N′-acetyl-4-amino-N-((1-(2,6-difluorophenyl)-1H-pyrazol-3-yl)methyl)-N′,1-dimethyl-1H-pyrazolo[4,3-c]quinoline-8-carbohydrazide], the 50% cytotoxic concentration (CC50) was < 100 nM.

Consider `CN(C(=O)C1CC1)N(Cc1ncc(C(F)(F)F)cc1Cl)C(=O)c1ccc2nc(N)c3cnn(C)c3c2c1` [Example 446, 4-amino-N-((3-chloro-5-(trifluoromethyl)pyridin-2-yl)methyl)-N′-(cyclopropanecarbonyl)-N′,1-dimethyl-1H-pyrazolo[4,3-c]quinoline-8-carbohydrazide], for which the CC50 is < 100 nM.
